Literature values in patent US20250064843A1, “METHOD AND MEDICAMENT FOR TREATING AMYOTROPHIC LATERAL SCLEROSIS” (4B TECHNOLOGIES (BEIJING) CO., LIMITED, priority 2021, published 2025).
In brackets after ≈: the same amount, converted by molar mass. One block for each compound: values may come before it.

Columns and labels:
KCNC1 = target: T1, KCNC1 (Homo sapiens, UniProt P48547); details: for KCNC1
T1 sequence (P48547 1-511): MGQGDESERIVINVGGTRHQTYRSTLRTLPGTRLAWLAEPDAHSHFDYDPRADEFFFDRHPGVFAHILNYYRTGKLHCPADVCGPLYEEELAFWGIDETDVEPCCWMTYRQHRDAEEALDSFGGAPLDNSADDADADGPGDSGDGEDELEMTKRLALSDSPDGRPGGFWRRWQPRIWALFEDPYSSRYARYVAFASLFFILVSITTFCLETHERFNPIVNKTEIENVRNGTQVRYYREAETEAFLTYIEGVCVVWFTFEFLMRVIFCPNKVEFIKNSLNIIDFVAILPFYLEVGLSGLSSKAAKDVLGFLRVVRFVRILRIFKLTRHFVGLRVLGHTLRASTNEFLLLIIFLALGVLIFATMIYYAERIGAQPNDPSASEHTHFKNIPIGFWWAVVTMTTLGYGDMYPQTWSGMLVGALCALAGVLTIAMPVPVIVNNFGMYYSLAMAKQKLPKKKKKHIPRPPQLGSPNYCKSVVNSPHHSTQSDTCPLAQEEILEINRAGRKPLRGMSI

mouse leukemia cells = details: on mouse leukemia cells
leukemia cells = details: on leukemia cells at 24 h
ALS patients = details: NR3C1 agonists
human neutrophils = details: in human neutrophils
NR3C1 = target: T2, NR3C1 (Homo sapiens, UniProt P04150); details: for NR3C1; retrieved from Selleckchem.com
T2 sequence (P04150 1-777): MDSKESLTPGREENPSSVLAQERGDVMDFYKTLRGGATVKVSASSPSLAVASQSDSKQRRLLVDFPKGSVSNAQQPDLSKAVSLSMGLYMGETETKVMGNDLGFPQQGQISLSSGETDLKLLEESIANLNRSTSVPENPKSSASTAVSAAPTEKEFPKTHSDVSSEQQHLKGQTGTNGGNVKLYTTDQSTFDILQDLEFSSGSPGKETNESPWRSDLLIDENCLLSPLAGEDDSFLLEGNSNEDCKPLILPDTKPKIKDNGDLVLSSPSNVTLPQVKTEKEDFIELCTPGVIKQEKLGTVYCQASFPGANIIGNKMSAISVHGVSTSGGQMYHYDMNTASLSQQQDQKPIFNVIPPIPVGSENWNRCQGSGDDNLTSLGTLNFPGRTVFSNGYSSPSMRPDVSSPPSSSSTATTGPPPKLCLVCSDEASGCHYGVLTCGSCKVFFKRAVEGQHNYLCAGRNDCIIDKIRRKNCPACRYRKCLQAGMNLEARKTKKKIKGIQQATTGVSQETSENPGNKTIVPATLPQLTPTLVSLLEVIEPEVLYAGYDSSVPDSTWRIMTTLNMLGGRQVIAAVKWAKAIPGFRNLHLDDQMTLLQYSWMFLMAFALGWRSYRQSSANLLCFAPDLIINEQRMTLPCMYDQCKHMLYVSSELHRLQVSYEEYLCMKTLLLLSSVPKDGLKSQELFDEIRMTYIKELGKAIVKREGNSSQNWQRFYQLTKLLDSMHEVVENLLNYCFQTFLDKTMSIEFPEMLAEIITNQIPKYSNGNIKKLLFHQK

ALS-mimic mouse model = details: NR3C1 antagonist
proliferation = details: for proliferation
IGF1R = IGF1R (Homo sapiens, UniProt P08069); details: for IGF1R
Chain of IGF1R (P08069 31-1367): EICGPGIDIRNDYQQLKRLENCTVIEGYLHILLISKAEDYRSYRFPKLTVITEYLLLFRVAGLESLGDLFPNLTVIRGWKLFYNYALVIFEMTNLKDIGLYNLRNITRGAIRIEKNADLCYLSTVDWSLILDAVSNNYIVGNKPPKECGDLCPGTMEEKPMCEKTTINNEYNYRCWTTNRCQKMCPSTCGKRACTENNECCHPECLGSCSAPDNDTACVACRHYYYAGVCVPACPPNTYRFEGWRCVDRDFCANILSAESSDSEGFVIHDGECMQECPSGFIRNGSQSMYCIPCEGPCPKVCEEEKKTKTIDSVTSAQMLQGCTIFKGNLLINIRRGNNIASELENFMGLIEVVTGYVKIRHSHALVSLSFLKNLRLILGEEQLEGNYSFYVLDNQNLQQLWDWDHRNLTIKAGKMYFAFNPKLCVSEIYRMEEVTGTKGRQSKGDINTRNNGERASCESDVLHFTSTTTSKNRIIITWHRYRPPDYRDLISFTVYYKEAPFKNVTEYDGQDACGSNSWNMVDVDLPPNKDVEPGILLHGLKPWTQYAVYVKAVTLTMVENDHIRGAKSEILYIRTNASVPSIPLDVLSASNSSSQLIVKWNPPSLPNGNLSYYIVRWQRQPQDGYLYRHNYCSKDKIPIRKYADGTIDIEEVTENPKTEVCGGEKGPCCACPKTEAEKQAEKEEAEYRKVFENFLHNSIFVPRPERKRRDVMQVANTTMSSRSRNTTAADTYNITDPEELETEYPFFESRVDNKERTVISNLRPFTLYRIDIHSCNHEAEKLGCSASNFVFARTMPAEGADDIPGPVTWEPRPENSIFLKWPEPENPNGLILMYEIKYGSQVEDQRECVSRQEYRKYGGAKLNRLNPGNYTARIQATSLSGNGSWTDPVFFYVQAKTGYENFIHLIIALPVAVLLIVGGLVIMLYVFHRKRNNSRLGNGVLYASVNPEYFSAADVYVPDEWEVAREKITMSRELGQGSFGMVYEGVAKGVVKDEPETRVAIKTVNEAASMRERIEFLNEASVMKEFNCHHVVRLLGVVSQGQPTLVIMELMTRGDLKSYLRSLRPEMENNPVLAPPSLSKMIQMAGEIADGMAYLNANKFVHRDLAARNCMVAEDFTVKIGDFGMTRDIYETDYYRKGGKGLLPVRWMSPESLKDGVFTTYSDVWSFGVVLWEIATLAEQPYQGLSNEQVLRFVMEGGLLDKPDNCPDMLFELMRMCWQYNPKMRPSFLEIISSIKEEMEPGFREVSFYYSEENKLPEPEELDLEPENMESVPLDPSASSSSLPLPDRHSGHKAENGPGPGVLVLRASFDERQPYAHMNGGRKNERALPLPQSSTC

SMILES: Nc1ccncc1 [Dalfampridine, 4-aminopyridine]
- IC50 (KCNC1): 29 µM

- IC50 (mouse leukemia cells): 0.019 µg/mL (≈ 0.0778 µM)
SMILES: Nc1ncn([C@@H]2O[C@H](CO)[C@@H](O)[C@H]2O)c(=O)n1 [Azacitidine, 5-azacytidine]

SMILES: Nc1ncn([C@H]2C[C@H](O)[C@@H](CO)O2)c(=O)n1 [Decitabine, 5-aza-2′-deoxycytidine]
- IC50 (leukemia cells): 0.1 µM

SMILES: C[C@]12C=CC(=O)C=C1CC[C@@H]1[C@@H]2C(=O)C[C@@]2(C)[C@H]1CC[C@]2(O)C(=O)CO [prednisone]
- response to immunosuppression therapy (ALS patients): none of the patients reached the pre-defined responder criteria

- IC50 (human neutrophils): 13.2 mg/L in
SMILES: CC(CCc1ccccc1)NCC(O)c1ccc(O)c(C(N)=O)c1 (stereo not drawn) [Labetalol]

- IC50 (NR3C1): 0.0179 µM
SMILES: CC#C[C@]1(O)CCC2C3CCC4=CC(=O)CCC4=C3[C@@H](c3ccc4c(c3)OCO4)C[C@@]21C (stereo partly drawn) [ORG-34517]

SMILES: O=C(c1ccccn1)[C@]12Cc3cnn(-c4ccc(F)cc4)c3C=C1CCN(S(=O)(=O)c1ccc(C(F)(F)F)cc1)C2 [CORT113176]
- effect on pro-inflammatory factors (ALS-mimic mouse model): reducing the expression and origin of pro-inflammatory factors

SMILES: COc1cc(C)c(/C=C/C(C)=C/C=C/C(C)=C/C(=O)O)c(C)c1C [Acitretin, (2E,4E,6E,8E)-9-(4-methoxy-2,3,6-trimethylphenyl)-3,7-dimethylnona-2,4,6,8-tetraenoic acid]
- IC50 (proliferation): 6.6 µM

SMILES: COc1cc([C@@H]2c3cc4c(cc3[C@H](O)[C@H]3COC(=O)[C@@H]23)OCO4)cc(OC)c1OC [AXL-1717, picropodophyllin]
- IC50 (IGF1R): 0.001 µM
